Patent publication US20190224187A1, “NEW USE OF ISOQUINOLINE DERIVATIVES FOR WOUND HEALING” (ZIH YUAN TANG Biotechnology Co., Ltd, priority 2018, published 2019)

Key:
[1] = tested on: blood glucose; details: U.S. Pat. No. 9,707,222; cited from earlier work
[2] = tested on: AMP-dependent protein kinase (AMPK); details: U.S. Pat. No. 9,707,222; cited from earlier work
[3] = tested on: excisional full-thickness square-shaped skin wound; experiment: Effect of salsolinol ointment on excisional full-thickness skin wound healing in guinea pigs; type: in vivo; details: for recover rate of wound vs vehicle control: another experiment; for wound recovery (wound images) vs vehicle controls: FIG. 3
Protocol: Salsolinol ointments at 0.01 mg/g, 0.03 mg/g and 0.1 mg/g were prepared respectively by dissolving 0.5 mg, 1.5 mg, and 5 mg of salsoinol in 2.5 mL of glycerol (Sigma Inc., MO, USA) plus 1.0 mL of Creagel emulsifier (First Chemical, TPE, Taiwan) and 45.5 mL of distilled water. Vehicle was composed of glycerol (2.5 mL), Creagel emulsifier (1.0 mL), and distilled water (45.5 mL).
Guinea pigs were purchased and were acclimatized at a room temperature, and had free access to water. All experimental procedures were approved by and performed in compliance with the guidelines of the Institutional Animal Care and Use Committee (IACUC). All surgeries were conducted while animals were under continuous anesthesia with 4% isoflurane.
The dorsal skin was shaved and then disinfected with 10% povidone-iodine before an excisional full-thickness square-shaped skin wound (1.0×1.0 cm) was induced using a sterile wound maker. Animals were then housed alone in its cage to avoid any further wound damage.
Animals were randomly divided into six groups (n=5 or 6, each group) as follows: • (1) animals treated with salsolinol at a concentration of 0.01 mg/g (C0.01, n=6); • (2) animal treated with the vehicle (V0.01) as compared with the group C0.01; • (3) animal treated with salsolinol at a concentration of 0.03 mg/g (C0.03, n=5); • (4) animal treated with the vehicle (V0.03) as compared with the group C0.03.
The groups were administered at the same amount of the salsolinol at 0.01 mg/g, and 0.03 mg/g or the vechile at the same amount once daily and the wounds were photopictured on Day 1, Day 3, Day 5, Day 7, Day 10, and Day 14. The sizes of the wounds were analyzed using Visual Basic 6.0. The rate of wound recovery at each experimental time point is calculated by the size of the wound as compared with that of the wound at D1, wherein the rate of wound recovery at Day 1 is 1.0.
In another experiment, the wounds of the guinea pigs were treated with salsolinol at a concentration of 0.001 mg/g, 0.01 mg/g or the vehicle at the same amount once daily and the wounds were photopictured on Day 1, Day 3, Day 5, Day 7, Day 10, and Day 14. The sizes of the wounds were analyzed using Visual Basic 6.0. The recovery rate of the wound at each experimental time point was calculated by the size of the wound as compared with that of the wound at D1, wherein the recover rate of wound at Day 1 is 0.0%.

## COc1ccc(C[C@H]2c3cc(O)c(OC)cc3CCN2C)cc1O [reticuline, reference compound]
[1]
  efficacy in reducing blood glucose: has an efficacy in reducing blood glucose
[2]
  activation of AMPK: can activate

## CC1NCCc2cc(O)c(O)cc21 (stereo not drawn) [salsolinol]
[1]
  efficacy in reducing blood glucose: has an efficacy in reducing blood glucose
[2]
  activation of AMPK: can activate
[3]; salsolinol 0.001 mg/g (C0.001) once daily, FIG. 4
  recover rate of wound vs vehicle control: better than that of the control group
[3]; salsolinol 0.01 mg/g (C0.01) once daily, after Day 3, p<0.05, FIG. 5
  recover rate of wound vs vehicle control: significantly better
[3]; salsolinol 0.01 mg/g (C0.01) once daily vs V0.01, Day 3, Day 5 and Day 7, p<0.01, FIG. 1
  wound healing (rate of wound recovery) vs vehicle control: significantly better
[3]; salsolinol 0.01 mg/g
  wound recovery (wound images) vs vehicle controls: better than the controls
[3]; salsolinol 0.03 mg/g (C0.03) once daily vs V0.03, Day 3, p<0.05, FIG. 2
  wound healing (rate of wound recovery) vs vehicle control: significantly better
[3]; salsolinol 0.03 mg/g
  wound recovery (wound images) vs vehicle controls: better than the controls
[3]; salsolinol 0.1 mg/g
  wound recovery (wound images) vs vehicle controls: better than the controls
[3]; salsolinol at 0.001 mg/g to 0.03 mg/g, preferably 0.01 mg/g
  wound recovery vs control groups (summary): enhanced the wound recovery
